Data from publication PMC12720125 (Redox Biology, 2025).

Legend:
[1] = biological target: T1, lymphoid-specific helicase (LSH) (Homo sapiens, UniProt Q9NRZ9); experiment: SPR; format: binding
T1 sequence (Q9NRZ9 1-838): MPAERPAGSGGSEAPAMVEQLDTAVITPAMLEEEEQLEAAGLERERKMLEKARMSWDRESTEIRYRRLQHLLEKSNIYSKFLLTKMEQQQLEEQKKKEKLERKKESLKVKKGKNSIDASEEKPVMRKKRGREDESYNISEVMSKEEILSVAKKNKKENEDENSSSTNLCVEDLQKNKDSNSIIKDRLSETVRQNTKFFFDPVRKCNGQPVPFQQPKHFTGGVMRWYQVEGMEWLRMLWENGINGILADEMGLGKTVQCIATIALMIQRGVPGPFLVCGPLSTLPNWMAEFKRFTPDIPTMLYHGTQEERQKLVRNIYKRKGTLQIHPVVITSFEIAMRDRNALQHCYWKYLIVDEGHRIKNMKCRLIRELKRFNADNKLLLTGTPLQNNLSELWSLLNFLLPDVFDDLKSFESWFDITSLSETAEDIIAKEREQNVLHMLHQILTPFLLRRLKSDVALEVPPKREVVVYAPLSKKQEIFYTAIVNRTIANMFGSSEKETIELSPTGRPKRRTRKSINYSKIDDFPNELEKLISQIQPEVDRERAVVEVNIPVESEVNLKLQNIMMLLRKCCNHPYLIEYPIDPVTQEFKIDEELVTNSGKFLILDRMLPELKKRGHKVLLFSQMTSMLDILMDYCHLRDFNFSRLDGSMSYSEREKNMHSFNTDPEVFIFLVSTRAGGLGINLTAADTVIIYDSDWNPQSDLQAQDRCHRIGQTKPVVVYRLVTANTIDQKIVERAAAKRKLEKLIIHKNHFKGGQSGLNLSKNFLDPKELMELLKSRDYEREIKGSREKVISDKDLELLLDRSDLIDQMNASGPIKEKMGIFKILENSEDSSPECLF

[2] = biological target: T1, lymphoid-specific helicase (LSH); experiment: KD determination, SPR; format: binding

| SMILES | Kd [1] [µM] | Kd [2] [µM] |
| --- | --- | --- |
| C=C1C(=O)O[C@@H]2O[C@@]3(C)CC[C@H]4[C@H](C)CC[C@@H]1[C@@]24OO3 [ATT, artemisitene] | 6.18 | – |
| C[C@@H]1CC[C@H]2[C@@H](C)C(=O)O[C@@H]3O[C@@]4(C)CC[C@@H]1[C@]32OO4 [artemisinin] | – | 32.2 |
